Laboratory results published in patent US20060223775A1 (priority 1992, published 2006).

Key:
Format in all cases: cell-based
[1] = test system: normal (NHF) human fibroblast; assay: Cell killing mediated by MVM-TK virions and gancyclovir (WST-1 colorimetric assay); settings: mock or MVM-TK infected, WST-1, daily
Description: (§1) The efficiency and selectivity of cells killing mediated by the MVM/P387-TK virions and gancyclovir were assessed by infecting normal (NHF) and transformed (NBK) human fibroblast. The results of said experiments are described in the enclosed FIGS. 8 and 9.
(§2) Cell growth was daily monitored with the WST-1 colorimetric assay (Boehringer).
(§3) In FIG. 9, NHF and NBK cells were infected at different MoI and the cell survival was assessed after 4 days with the WST-1 assay in presence or absence of GCV.

[2] = test system: transformed (NBK) human fibroblast; assay: as above; settings: WST-1, daily
Description: as §1, §2, §3

[3] = test system: luciferase gene under the control of a promoter activated by tTA; assay: Luciferase expression in clone NBK.MZ.tTA-2 electroporated with pUHC13-1
Description: Selected stably transfected NBK324 clones (G418 selection) were assayed for luciferase expression upon transient transfection (in absence or presence of tetracycline) with the plasmid pUHC13-1 (Gossen and Bujard). The plasmid pUHC13-1 is an expression vector containing the luciferase gene under the control of a promoter activated by tTA.
The best clone selected, NBK.MZ.tTA-2, upon electroporation at 230 volts and 1050 μF with 4 μg of pUHC13-1 is charaterized by the following results (expressed in relative luciferase unit rlu/μg protein): […]

Row | SMILES | cell growth at different GCV concentrations [1] | GCV concentration at which growth was severely suppressed ([2]; MVM-TK infected NBK) | cell growth at different GCV concentrations ([2]; mock infected NBK) | luciferase expression (relative luciferase unit) ([3]; tetracycline 10 ng ml, 4 μg pUHC13-1, 230 volts, 1050 μF) | luciferase expression (relative luciferase unit) ([3]; tetracycline 100 ng/ml, 4 μg pUHC13-1) | luciferase expression (relative luciferase unit) ([3]; tetracycline 1 μg/ml, 4 μg pUHC13-1)
1 | Nc1nc(O)c2ncn(COC(CO)CO)c2n1 [GCV, gancyclovir] | not affected | ≥ 3 µg/mL | not affected |  |  | 
2 | CN(C)[C@@H]1C(O)=C(C(N)=O)C(=O)[C@@]2(O)C(O)=C3C(=O)c4c(O)cccc4[C@@](C)(O)[C@H]3C[C@@H]12 [tetracycline] |  |  |  | 19212 rlu/μg protein | 2268 rlu/μg protein | 1568 rlu/μg protein
